The values below are quoted from earlier work in patent publication US8592402B2, “Compounds as lysophosphatidic acid receptor antagonists” (Amira Pharmaceuticals, Inc., priority 2009, dated 2013).

One data set has as its system nerve-injured mice. Particulars: pretreatment.
For data set [1], the system named is human foetal lung fibroblasts.
For the next data set, the system named is UUO mice. Particulars: compared with LPA1 (−/−) mice.
The subject of data set [2] is mouse epithelial renal cell line, MCT. Particulars: LPA treatment of MCT cells, co-treatment.
In data set [3] the test system is pancreatic cancer cell lines. The settings on record: in response to LPA and peritoneal fluid (ascites) from pancreatic cancer patients.
Data set [4] deals with highly peritoneal metastatic pancreatic cancer cell line. The settings on record: LPA-induced and ascites-induced.

For `C[C@@H](N)[C@H]1CC[C@H](C(=O)Nc2ccncc2)CC1` [Compound Y-27632], in the data set on nerve-injured mice, the allodynia and hyperalgesia result is recorded as “completely abolished”.

In the case of `Cc1noc(-c2ccc(CSCCC(=O)O)cc2)c1NC(=O)OC(C)c1ccccc1Cl` (stereo not shown) [Ki16425], the fibroblast chemotactic activity result in data set [1] (bronchoalveolar lavage samples of human subjects with IPF) is listed as “inhibited”. Also, the “chemotaxis of human foetal lung fibroblasts” value in data set [1] (induced by BAL obtained from IPF patients) is on record as “blocked”. Further, the “development of renal fibrosis” value in the data set on UUO mice was “closely resembled the LPA1 (−/−) mice”. In addition, the “induction of CTGF expression” value in data set [2] is given as “almost completely suppressed”. For the same compound, the in vitro migration result in data set [3] was “effectively blocked”. Further, the invasion activity result in data set [4] was “blocked”.
